Reference: patent US5102870A, “Treatment and prevention of oral mucositis with growth factors” (Schering AG, priority 1989, dated 1992)

System: mucositis induced by the administration of 5-FU in hamsters
Test: 5-fluorouracil plus mechanical irritation induced oral mucositis model, cheek pouch
Format: in vivo, Golden Syrian hamsters
Text: An animal model for studying the acute effects of chemotherapy and radiotherapy in the oral cavity was developed by Dr. Stephen T. Sonis at Brigham and Women's Hospital, Boston, Mass. This model was particularly suited for testing the efficacy of growth factors on chemotherapy mucositis. This model utilizes an acute regimen of 5-fluorouracil (5-FU) combined with mechanical irritation to induce mucositis. More specifically, intraperitoneal (i.p.) injections of 5-fluorouracil were combined with superficial mechanical mucosal irritation to result in clinical breakdown of the oral mucosa as characterized by ulcerative mucositis in Golden Syrian hamsters. […] For these reasons, it was believed that this model would be extremely beneficial in evaluating growth factors to treat mucositis.
The following experiment was performed to determine the effects of growth factors, specifically TGF-α, on the prevention and healing of mucositis induced by the administration of 5-FU in hamsters. Example 1:
One hundred young male Golden Syrian hamsters were divided into four groups of 25 animals each. Beginning on day 0, animals received twice daily dosing of their cheek pouch buccal mucosa as follows:
Medication was applied in a volume of 0.2 ml of Orabase per cheek pouch. The right cheek pouch was mechanically irritated by superficial scratching starting at day 0, daily until erythematous changes were noted. For most animals, such changes were noted by day 2 and mechanical irritation discontinued. For the remaining animals, mechanical irritation was stopped at day 3. Beginning on day 0, all of the animals received i.p. injections of 5-FU at a dose of 60 mg/kg body weight, with additional dosing on days 5 and 10. The animals were observed and weighed daily. On days 2, 4, 6, 8, 10, 12, 14, 16, 18 and 20, two animals were randomly sacrificed in each group. Cheek pouches were biopsied. The tissue was then placed in 10% formalin for histologic study according to established methods, and subsequently stained with hematoxylin and eosin. The following parameters were evaluated and scored: inflammatory infiltrate, degree of epithelial atropy, extent of epithelial breakdown/ulceration, mitotic activity at would margins and evidence of superficial/secondary infection. Two randomly selected hamsters from each group had their cheek pouches photographed daily. The animals were weighed and observed daily. […] Mucositis was scored using the following established scale:
Grade 0--no evidence of ulcers or mucositis
Grade 1--erythema but no ulceration
Grade 2--1 or 2 small (<2 mm), single ulcers
Grade 3--1 large or 3 or more small ulcers
Grade 4--multiple large ulcers and/or involvement of 50% of pouch mucosal surface area
The animals were evaluated both for the ability of TGF-α to delay the onset and reduce the severity of mucositis. The data presented here are based upon clinical observations. Histologic evaluation of biopsied cheek pouches corroborated these observations.

## transforming growth factor-alpha [TGF-α]
Group III, TGF-α in Orabase 2 μg/dose (low dose), twice daily, compared among groups
  averaged mucositis grades (severity of mucositis): best results
Group III, TGF-α in Orabase 2 μg/dose, twice daily
  development of grade 3/4 mucositis: did not develop
Group IV, TGF-α in Orabase 20 μg/dose, twice daily
  day of development of grade 3/4 mucositis: 9 days
TGF-α groups vs Group I (none) and Group II (Orabase only)
  onset of mucositis (development of grade 3 and 4 mucositis): delayed the onset of mucositis
Groups receiving TGF-α in Orabase (2 or 20 μg/dose), topical to cheek pouch twice daily, 18 day period, vs control groups
  averaged mucositis grades (severity of mucositis): lower overall scores
